From patent US20110195403A1, “SYSTEMS AND METHODS FOR FERTILITY ANALYSIS” (priority 2010, published 2011)
Several values for one entry are separate records, joined by “and”; a condition that tells them apart may be missing. Identical values can stand only once. Like-named read-outs stand apart in the source and are kept apart here.

Tests used:
peroxidase = experiment: Peroxidase assay in saliva (Amplex Red); type: biochemical
Method: To determine the effect of various GRAS compounds as inhibitors of peroxidase activity, a standard assay using Amplex® Red (Life Technologies), which releases a fluorescent oxidation product.
The test compounds, such as GRAS materials or cocktails of same, were prepared at a concentration of 500 ppm in distilled water. For the assay, 50 μl samples of test compounds were mixed with 20-30 μl of saliva (either “pooled” or “unpooled”) prior to the addition of Amplex® Red. […] Reactions were allowed to run for 30 minutes during these assays.

Galactose Oxidase = settings: dilute (3.5%) saliva; FIG. 13
Lysozyme = biological target: T1, Lysozyme (Homo sapiens, UniProt P61626); experiment: Lysozyme inhibition saliva screening (fluorescein-labeled Micrococcus lysodeikticus); type: biochemical; settings: for inhibition of Lysozyme: 100% saliva samples (data not shown); for RFU Reading (60 mins): saliva, test compound prepared at 5,000 ppm; for Lysozyme Inhibitor Activity: dilute (3.5%) saliva, FIG. 12
T1 sequence (P61626 19-148): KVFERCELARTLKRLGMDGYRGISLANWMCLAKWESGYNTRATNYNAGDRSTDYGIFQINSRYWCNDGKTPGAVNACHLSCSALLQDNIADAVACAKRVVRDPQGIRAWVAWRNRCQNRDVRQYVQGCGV
Source text: Further details of these five compounds may also be seen in Table 5.

α-amylase = biological target: T2, α-amylase (Homo sapiens, UniProt P0DUB6); experiment: α-Amylase inhibition saliva screening (2-chloro-p-nitrophenol-maltotriose substrate, absorbance 405 nm); type: biochemical; settings: for % Inhibition / % Std: relative to 100% Saliva Control; for α-amylase assay reading (absorbance at 405 nm), single replicate / α-amylase assay reading, Ave: test compound prepared at 5,000 ppm, saliva, 37° C.; for inhibition of α-Amylase: 100% saliva samples, FIG. 11; for α-Amylase Inhibitor Activity: dilute (3.5%) saliva, FIG. 10
T2 sequence (P0DUB6 16-511): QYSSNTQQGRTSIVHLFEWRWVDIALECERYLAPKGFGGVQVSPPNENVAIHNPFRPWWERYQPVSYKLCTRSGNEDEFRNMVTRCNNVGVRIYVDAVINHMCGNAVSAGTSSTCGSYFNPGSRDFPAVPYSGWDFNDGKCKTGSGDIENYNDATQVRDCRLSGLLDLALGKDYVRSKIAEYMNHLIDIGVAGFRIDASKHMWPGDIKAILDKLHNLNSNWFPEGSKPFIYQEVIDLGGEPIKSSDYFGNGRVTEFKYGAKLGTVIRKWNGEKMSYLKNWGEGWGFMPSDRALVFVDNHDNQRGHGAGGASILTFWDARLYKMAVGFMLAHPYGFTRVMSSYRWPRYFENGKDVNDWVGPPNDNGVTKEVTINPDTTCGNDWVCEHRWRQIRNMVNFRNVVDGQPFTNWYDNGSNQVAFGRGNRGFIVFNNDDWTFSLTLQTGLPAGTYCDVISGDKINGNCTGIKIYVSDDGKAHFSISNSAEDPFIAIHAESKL
Source text: Further details of these five compounds may also be seen in Table 4.

[1] = 500 ppm, pooled or unpooled saliva, 30 minutes, FIGS. 26-29

Compound: O=C(O)c1ccccc1 [CDI #16, Benzoic acid]
- peroxidase inhibition (peroxidase): significant peroxidase inhibition capabilities

Compound: Cn1c(=O)c2c(ncn2C)n(C)c1=O [CDI #33, Caffeine]
- peroxidase inhibition (peroxidase; [1]): significant peroxidase inhibition capabilities

Compound: COc1ccc(O)c(C(C)(C)C)c1 [CDI-039, 3-tert--butyl-hydroxyanisole]
- peroxidase inhibition (peroxidase; [1]): significant peroxidase inhibition capabilities
- Galactose Oxidase Inhibitor Activity (Galactose Oxidase): shown to have Galactose Oxidase Inhibitor Activity

Compound: O=C(O)c1ccccc1 [CDI-40, Benzoic acid]
- inhibition of Lysozyme (Lysozyme): shown to inhibit Lysozyme
- RFU Reading (60 mins) (Lysozyme): 35.82 RFU
- Lysozyme Inhibitor Activity (Lysozyme): shown to have Lysozyme Inhibitor Activity
- Galactose Oxidase Inhibitor Activity (Galactose Oxidase): shown to have Galactose Oxidase Inhibitor Activity

Compound: CC(=O)O [CDI-047, Acetic acid]
- inhibition of Lysozyme (Lysozyme): shown to inhibit Lysozyme
- RFU Reading (60 mins) (Lysozyme): 33.53 RFU
- Lysozyme Inhibitor Activity (Lysozyme): shown to have Lysozyme Inhibitor Activity
- Galactose Oxidase Inhibitor Activity (Galactose Oxidase): shown to have Galactose Oxidase Inhibitor Activity

Compound: Aluminum potassium sulfate dodecahydrate [CDI-42]
- peroxidase inhibition (peroxidase; [1]): significant peroxidase inhibition capabilities
- Galactose Oxidase Inhibitor Activity (Galactose Oxidase): shown to have Galactose Oxidase Inhibitor Activity
- % Inhibition (α-amylase; 0 min): 77.07%
- % Std (α-amylase; 0 min): 22.93%
- α-amylase assay reading (absorbance at 405 nm), single replicate (α-amylase; 0 min): 0.80 and 1.13 and 0.90 and 0.84
- α-amylase assay reading, Ave (α-amylase; 0 min): 0.92
- inhibition of α-Amylase (α-amylase): shown to inhibit α-Amylase
- % Inhibition (α-amylase; 5 min): 53.76%
- % Std (α-amylase; 5 min): 46.24%
- α-amylase assay reading (absorbance at 405 nm), single replicate (α-amylase; 5 min): 1.65 and 2.15 and 1.80 and 1.81
- α-amylase assay reading, Ave (α-amylase; 5 min): 1.85
- % Inhibition (α-amylase; 15 min): 42.65%
- % Std (α-amylase; 15 min): 57.35%
- α-amylase assay reading (absorbance at 405 nm), single replicate (α-amylase; 15 min): 2.37 and 2.38 and 2.25 and 2.17
- α-amylase assay reading, Ave (α-amylase; 15 min): 2.29
- α-Amylase Inhibitor Activity (α-amylase): shown to have α-Amylase Inhibitor Activity

Compound: Aluminum sulfate hydrate [CDI-34]
- % Inhibition (α-amylase; 0 min): 89.96%
- % Std (α-amylase; 0 min): 10.04%
- α-amylase assay reading, Ave (α-amylase; 0 min): 0.40
- α-amylase assay reading (absorbance at 405 nm), single replicate (α-amylase; 0 min, sulfate hydrate): 0.40 (2×) and 0.36 and 0.45
- inhibition of α-Amylase (α-amylase): shown to inhibit α-Amylase
- % Inhibition (α-amylase; 5 min): 87.39%
- % Std (α-amylase; 5 min): 12.61%
- α-amylase assay reading, Ave (α-amylase; 5 min): 0.50
- α-amylase assay reading (absorbance at 405 nm), single replicate (α-amylase; 5 min, sulfate hydrate): 0.49 and 0.50 (2×) and 0.52
- % Inhibition (α-amylase; 15 min): 85.98%
- % Std (α-amylase; 15 min): 14.02%
- α-amylase assay reading, Ave (α-amylase; 15 min): 0.56
- α-amylase assay reading (absorbance at 405 nm), single replicate (α-amylase; 15 min, sulfate hydrate): 0.53 and 0.61 and 0.54 and 0.56
- α-Amylase Inhibitor Activity (α-amylase): shown to have α-Amylase Inhibitor Activity
